Measured values: patent publication US11260034B2, “Method of using niclosamide derivatives” (CHANG GUNG UNIVERSITY, priority 2016, dated 2022)

Legend:
[1] = test system: washed platelet samples, platelet aggregation induced by collagen; assay: platelet aggregation test, washed platelets stimulated with collagen (light transmission); type: cell-based; conditions: for collagen-induced platelet aggregation: FIG. 8; for aggregation percentage: FIG. 9
Experimental: FIG. 1 is a diagram illustrating a platelet aggregation test, in accordance with at least one embodiment of the present invention. In FIG. 1, N and C represent the administrations of niclosamide in 0.25% dimethyl sulfoxide (DMSO) or collagen respectively. The platelet aggregation test was performed in accordance with the standard procedure. Four washed platelet samples from the same source were treated with the same volume of niclosamide (0.5 μM, 1 μM, and 2 μM) or a solvent control respectively. Five minutes later, each washed platelet sample was treated with collagen (2 μM) to induce platelet aggregation. FIG. 1 illustrates the light transmission rates of each result. In FIG. 1, the X-axis represents time and the Y-axis represents the transmittance. Note that in FIG. 1, the four platelet aggregation tests performed simultaneously are presented sequentially on the X-axis to render the data readable for one skilled in the art. […] The platelet aggregation test was performed in accordance with the standard procedure. Four washed platelet samples from the same source were treated with the same volume of niclosamide (0.5 μM, 1 μM, and 2 μM) or a solvent control respectively. Five minutes, each washed platelet sample was treated with 2 μM collagen to induce platelet aggregation. The results were detected twenty minutes after the administration of collagen. In FIG. 2, the Y-axis represents the percentage of platelet aggregation, in which the transmittance of platelet-poor plasma is set as 100%. FIG. 8 is a diagram illustrating a platelet aggregation test, in accordance with at least one embodiment of the present invention. Four washed platelet samples from the same source were treated with different treatments at the same time. In FIG. 8, “D” represents the administration of 0.25% DMSO; “C” represents the administration of collagen; “N” represents the administration of niclosamide in 0.25% DMSO; and “S” represents the administration of a STAT-3 inhibitor, STA-21. […] Four washed platelet samples from the same source were treated with different treatments at the same time. In FIG. 9, “D” represents 0.25% DMSO; “STA-21” represents the STAT-3 inhibitor, STA-21; “Niclosamide” represents the niclosamide in 0.25% DMSO; and “Collagen” represents the stimulant, collagen.

[2] = test system: washed platelet sample, clot formation induced by collagen; assay: optical microscope images of platelet aggregation test; type: cell-based; conditions: FIG. 4C; 2 μM niclosamide and 2.5 μM collagen
Experimental: FIGS. 4A-4C are optical microscope images of a platelet aggregation test, in accordance with at least one embodiment of the present invention. The platelet aggregation test was performed in accordance with the standard procedure on three washed platelet samples from the same source at the same time. […] In FIG. 4C, the washed platelet sample 10 received 2 μM niclosamide and 2.5 μM collagen; In FIG. 4B, the washed platelet sample 10 received 2.5 μM collagen and 0.25% DMSO with the same volume of the niclosamide in FIG. 4C. Note that 0.25% DMSO is the solvent of the niclosamide in FIG. 4C. […] In FIG. 4B, clots 20 formed as a result of the treatment of collagen and DMSO.

[3] = test system: mice; assay: ferric chloride occlusive thrombosis of mesenteric arteries; type: in vivo; conditions: FIG. 11; mice 8-10 weeks; 20 mg/kg injected into the abdomen; 7.5% FeCl3 on mesenteric arteries for 2 min; DMSO control 5 minutes
Experimental: FIG. 11 is diagram illustrating the occlusion time, in accordance with at least one embodiment of the present invention. Mice at 8-10 weeks of age were used in FIG. 11. About 20 nM 3,3′-Dihexyloxacarbocyanine iodide (DioC6), a fluorescent dye used for the staining of platelets, was injected into the orbital vein after 20 mg/kg niclosamide or 5% DMSO was injected into the abdomen. An hour later, isoflurane was provided based on the body weight to anesthetize the mice. Followed the standard procedure for studying occlusive thrombosis, Whatman #1 filter papers soaked with 7.5% ferric chloride (FeCl3) were attached to the mesenteric arteries for two minutes. The mesenteric arteries were then immersed in isotonic saline and placed under a fluorescence microscope (Macrofluo, objective 5.0/0.5 NA, Leica Micro-systems) to record the occlusion time and cessation of blood flow.

[4] = test system: pSYK and PLCγ2; assay: western blot of proteins in the signal transduction pathway of platelet aggregation; type: cell-based; conditions: FIG. 3; 2 μM niclosamide pretreatment, 2.5 μM collagen
Experimental: FIG. 3 is a western blot image showing proteins in the signal transduction pathway of platelet aggregation, in accordance with at least one embodiment of the present invention. In FIG. 3, pSYK and PLCγ2 in the signal transduction pathway are suppressed in the washed platelet sample received 2 μM niclosamide, even that is treated with 2.5 μM collagen to induce platelet aggregation. In contrast, the pSYK and PLCγ2 in the washed platelet sample received a solvent control (0.25% DMSO) pretreatment are successfully activated after the 2.5 μM collagen treatment.

[5] = Int J Risk Saf Med 20 (2008) 113-122; cited from earlier work
[6] = test system: mice; assay: tail bleeding assay; type: in vivo; conditions: FIG. 10; mice 8-10 weeks; 20 mg/kg injected into the abdomen, 1 h before; distal 3-mm tail segment amputated; DMSO control 5 minutes
Experimental: FIG. 10 is diagram illustrating the bleeding time results, in accordance with at least one embodiment of the present invention. Mice at 8-10 weeks of age were used in FIG. 10. Isoflurane was provided based on the body weight to anesthetize the mice one hour after the 20 mg/kg niclosamide or 5% DMSO was injected into the abdomen. Followed the standard procedure of tail bleeding assay, the distal 3-mm segment of the tail was amputated with scalpel after the anesthetization. The tails were than immersed in isotonic saline at 37° C. to observe the bleeding time. […] However, the bleeding time for mice treated with niclosamide was extended to around 15 minutes.

[7] = test system: washed platelet samples, platelet aggregation induced by podoplanin; assay: platelet aggregation test, washed platelets stimulated with podoplanin; type: cell-based; conditions: FIG. 6; niclosamide 0.5 μM, 1 μM or 2 μM vs solvent control; 0.4 μM podoplanin; read 20 min after podoplanin
Experimental: FIG. 6 is a bar chart representing the quantitative results of a platelet aggregation test, in accordance with at least one embodiment of the present invention. All procedures in FIG. 6 are the same as the procedures in FIG. 2, except that the collagen used to stimulate platelet aggregation in FIG. 2 is substituted by podoplanin in FIG. 6. In this embodiment, four washed platelet samples from the same source were treated with the same volume of niclosamide (0.5 μM, 1 μM, and 2 μM) or a solvent control respectively. Five minutes, each washed platelet sample was treated with 0.4 μM podoplanin to induce platelet aggregation. The results were detected twenty minutes after the administration of podoplanin. In FIG. 6, the Y-axis represents the percentage of platelet aggregation, in which the transmittance of platelet-poor plasma is used as 100%.

Row | Structure (SMILES) | collagen-induced platelet aggregation ([1]; pretreated with 1.25 μM STA-21, 2 μM collagen) | aggregation percentage ([1]; 1.25 μM STA-21 and 2 μM collagen (DMSO control exceeds 60%)) | platelet aggregation / clots under 20× optical microscope [2] | occlusion time [3] | pSYK and PLCγ2 in the signal transduction pathway [4] | safety profile under current conditions of use [5] | platelet aggregation induced by collagen (transmittance over time) ([1]; FIG. 1, niclosamide 0.5 μM, 1 μM, 2 μM given 5 min before collagen 2 μM) | percentage of platelet aggregation ([1]; FIG. 2, niclosamide 0.5 μM, 1 μM or 2 μM vs solvent control, 2 μM collagen, read 20 min after collagen, p<0.01) | collagen-induced platelet aggregation ([1]; pretreated with 0.25 μM niclosamide, 2 μM collagen) | aggregation percentage ([1]; 0.25 μM niclosamide and 2 μM collagen (DMSO control exceeds 60%)) | IC50 relative to STA-21 ([1]; FIGS. 8 and 9, collagen-induced platelet aggregation) | bleeding time [6] | percentage of platelet aggregation [7]
1 | C[C@@H]1CC(=O)c2c(ccc3c2C(=O)c2cccc(O)c2C3=O)C1 [STA-21, ochromycinone] | suppressed | less than 40% |  |  |  |  |  |  |  |  |  |  | 
2 | O=C(Nc1ccc([N+](=O)[O-])cc1Cl)c1cc(Cl)ccc1O [niclosamide, 5-chloro-N-(2-chloro-4-nitrophenyl)-2-hydroxybenzamide] |  |  | No platelet aggregation is observed | around 25 minutes | suppressed | there is no information to suggest an unfavorable safety profile of the drug under current conditions of use | suppresses the platelet aggregation induced by collagen in a dose-dependent manner | significantly reduced | suppressed | less than 30% | lower IC50 compared to STA-21 | around 15 minutes | significantly reduced
